Test results from US11292758B2, “Compounds and methods for delivery of prostacyclin analogs” (United Therapeutics Corporation, priority 2003, dated 2022).
Where two headings read alike, the source gives them in different places.

How the values were obtained:
in vivo = settings: male, Sprague-Dawley, rat
[1] = Bioavailability and pharmacokinetics of treprostinil in rats after intravenous, intraportal vein, intraduodenal, intracolonic and oral dosing (Example 1); settings: rats dosed via the portal vein, 1 mg/kg, before the thirty-minute sample
[2] = rat, in vivo
[3] = Skin contact irritation testing
Text: In contrast, some of the compounds disclosed herein, generally as prodrugs of treprostinil, are not irritating to the skin. Accordingly, the present compounds are well suited for topical or transdermal administration.

Caco-2 cell monolayers = test: Permeability across Caco-2 cell monolayers; type: in vitro ADME
Text: (§1) There are two major barriers to deliver treprostinil in the circulatory system. One of these barriers is that treprostinil undergoes a large first pass effect. […] The permeability of treprostinil has been measured across Caco-2 cell monolayers. […] It is believed that the p-glycoprotein efflux pump prevents certain pharmaceutical compounds from traversing the mucosal cells of the small intestine and, therefore, from being absorbed into systemic circulation.

[4] = First pass effect on circulating through the liver; type: in vivo
Text: as §1

[5] = 1 mg/kg, Average (n = 3) plasma concentrations
[6] = 1 mg/kg, Average plasma concentrations
[7] = iv, 1 mg/kg, Average (n = 3) plasma concentrations
[8] = po, 1 mg/kg, Average (n = 3) plasma concentrations
[9] = male, Sprague-Dawley, iv, 1 mg/kg

`CCCCC[C@H](O)CC[C@@H]1[C@H]2Cc3cccc(OCC(=O)O)c3C[C@H]2C[C@H]1O` [Treprostinil, treprostinil] gave a concentration at 360 min (in vivo; [5]) of 0.89 ng/mL, a concentration at 480 min (in vivo; [5]) of 0.9 ng/mL and a concentration at 2 min (in vivo; [6]) of 302 ng/mL. For the same molecule, the concentration at 5 min (in vivo; [6]) was 97.4 ng/mL, the concentration at 15 min (in vivo; [6]) was 48 ng/mL and the concentration at 30 min (in vivo; [6]) was 21.9 ng/mL. For the same molecule, the concentration at 60 min (in vivo; [6]) was 11.1 ng/mL, the concentration at 120 min (in vivo; [6]) was 3.87 ng/mL and the concentration at 240 min (in vivo; [6]) was 2.51 ng/mL. The concentration at 360 min (in vivo; [6]) was 4.95 ng/mL, the concentration at 480 min (in vivo; [6]) was 5.14 ng/mL and the Tmax (in vivo) was ≤ 5 min. For the same molecule, the Vd (in vivo; iv, 1 mg/kg) was 1.98 L/kg, the clearance (in vivo; iv, 1 mg/kg) was 88.5 mL/min/kg and the concentration at 2 min (in vivo; [7]) was 1050 ng/mL. It also gave a concentration at 5 min (in vivo; [7]) of 364 ng/mL, a concentration at 15 min (in vivo; [7]) of 131 ng/mL and a concentration at 30 min (in vivo; [7]) of 55.6 ng/mL. For the same molecule, the concentration at 60 min (in vivo; [7]) was 14.4 ng/mL, the concentration at 120 min (in vivo; [7]) was 4.45 ng/mL and the concentration at 240 min (in vivo; [7]) was 1.09 ng/mL. The concentration at 360 min (in vivo; [7]) was 0.5 ng/mL, the concentration at 480 min (in vivo; [7]) was 0.3 ng/mL and the AUC(0-t) (in vivo; iv, 1 mg/kg, Average AUC480 min) was 188 ng·h/mL. For the same molecule, the Cmax (in vivo; iv, 1 mg/kg) was 2120 ng/mL, the AUC(0-t) (in vivo; iv, 1 mg/kg, Individual AUC480 min) was 172 ng·h/mL and the Tmax (in vivo; iv, 1 mg/kg) was 0 min. For the same molecule, the half-life (in vivo; iv, 1 mg/kg, T½ (terminal plasma half-life)) was 94 min, the half-life (in vivo; iv, 1 mg/kg, half-life of the distribution phase) was 10.3 min and the concentration at 5 min (in vivo; [8]) was 4.52 ng/mL. It also gave a concentration at 15 min (in vivo; [8]) of 2.9 ng/mL, a concentration at 30 min (in vivo; [8]) of 3.67 ng/mL and a concentration at 60 min (in vivo; [8]) of 2.06 ng/mL. It also gave a concentration at 120 min (in vivo; [8]) of 4.52 ng/mL, a concentration at 240 min (in vivo; [8]) of 1.82 ng/mL and a concentration at 360 min (in vivo; [8]) of 0.9 ng/mL. For the same molecule, the concentration at 480 min (in vivo; [8]) was 0.96 ng/mL, the AUC(0-t) (in vivo; po, 1 mg/kg, Average AUC480 min) was 17.3 ng·h/mL and the bioavailability (in vivo; po, 1 mg/kg, Average Bioavailability (%) ± SD) was 9.2 ± 1.4%. For the same molecule, the Cmax (in vivo; po, 1 mg/kg) was 5 ng/mL, the AUC(0-t) (in vivo; po, 1 mg/kg, Individual AUC480 min) was 16.6 ng·h/mL and the bioavailability (in vivo; po, 1 mg/kg, Individual Bioavailability) was 8.9%. For the same molecule, the Tmax (in vivo; po, 1 mg/kg) was 5 min, the Mortality [1] was “One rat (#123) expired” and the “compound absorbed in the intestine” value ([2]; male, Sprague-Dawley) was “approximately 60%”. The Tmax ([2]; male, Sprague-Dawley, 1 mg/kg) was 2 min, the “Average (n = 3) plasma concentrations” value ([2]; male, Sprague-Dawley, 1 mg/kg, 360 min) was 0.06^λ ng/mL and the “Average (n = 3) plasma concentrations” value ([2]; male, Sprague-Dawley, 1 mg/kg, 480 min) was 0.20^λ ng/mL. The CLs [2, 9] was 88.54 mL/min/kg, the “Volume of Distribution” value [2, 9] was 1.98 L/kg and the “distribution and elimination of the compound that occurs by 60 minutes post-dosing” value ([2]; male, Sprague-Dawley, iv, 60 min) was “over 90%”. The Clinical observations ([2]; iv, 1 mg/kg) was “extreme lethargy”, the “skin irritation upon skin contact” value [3] was “can be irritating upon skin contact” and the apical to basal transport rate (Caco-2 cell monolayers) was 1.39e-06 cm/s. The basal to apical transport rate (Caco-2 cell monolayers) was 1.23e-05 cm/s, the “absorbed dose left after first pass” value [4] was “about 40%” and the “treprostinil plasma levels metabolized upon first circulating through the liver” value [4] was “about 60%”.
